The source made the active and inactive calls. The rule behind the calls is not given here.
Assays:
[1] = target: T1, Protein cereblon/Androgen receptor (Homo sapiens, UniProt P10275+Q96SW2); experiment: PROTAC activity at CRBN/AR in human dermal papilla cell assessed as induction of AR degradation measured after 24 hrs by Western blot analysis; format: cell-based
Target sequence in this assay (P10275 whole entry): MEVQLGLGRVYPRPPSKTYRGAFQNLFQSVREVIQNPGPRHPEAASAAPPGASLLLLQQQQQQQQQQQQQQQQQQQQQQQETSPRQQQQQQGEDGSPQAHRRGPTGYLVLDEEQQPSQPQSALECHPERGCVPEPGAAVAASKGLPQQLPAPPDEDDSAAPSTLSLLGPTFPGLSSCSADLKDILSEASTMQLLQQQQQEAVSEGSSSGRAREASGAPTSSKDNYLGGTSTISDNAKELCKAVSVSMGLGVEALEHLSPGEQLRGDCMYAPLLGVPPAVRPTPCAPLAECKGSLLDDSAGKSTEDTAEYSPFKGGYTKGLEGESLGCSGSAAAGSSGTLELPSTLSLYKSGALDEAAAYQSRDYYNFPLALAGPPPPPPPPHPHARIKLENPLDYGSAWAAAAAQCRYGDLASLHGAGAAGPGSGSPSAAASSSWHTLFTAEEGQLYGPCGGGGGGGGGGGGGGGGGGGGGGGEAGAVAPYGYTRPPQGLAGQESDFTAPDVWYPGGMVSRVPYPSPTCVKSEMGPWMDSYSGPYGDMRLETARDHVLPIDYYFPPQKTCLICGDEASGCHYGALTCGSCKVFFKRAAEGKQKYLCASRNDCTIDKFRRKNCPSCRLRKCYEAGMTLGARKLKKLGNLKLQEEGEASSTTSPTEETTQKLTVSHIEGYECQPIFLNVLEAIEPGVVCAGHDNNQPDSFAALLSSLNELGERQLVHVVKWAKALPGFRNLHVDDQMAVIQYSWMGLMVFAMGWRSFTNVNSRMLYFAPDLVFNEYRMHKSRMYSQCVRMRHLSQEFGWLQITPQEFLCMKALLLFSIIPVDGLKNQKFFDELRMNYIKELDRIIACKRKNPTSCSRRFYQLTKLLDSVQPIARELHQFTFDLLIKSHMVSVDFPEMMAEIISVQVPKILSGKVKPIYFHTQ
Target sequence in this assay (Q96SW2 whole entry): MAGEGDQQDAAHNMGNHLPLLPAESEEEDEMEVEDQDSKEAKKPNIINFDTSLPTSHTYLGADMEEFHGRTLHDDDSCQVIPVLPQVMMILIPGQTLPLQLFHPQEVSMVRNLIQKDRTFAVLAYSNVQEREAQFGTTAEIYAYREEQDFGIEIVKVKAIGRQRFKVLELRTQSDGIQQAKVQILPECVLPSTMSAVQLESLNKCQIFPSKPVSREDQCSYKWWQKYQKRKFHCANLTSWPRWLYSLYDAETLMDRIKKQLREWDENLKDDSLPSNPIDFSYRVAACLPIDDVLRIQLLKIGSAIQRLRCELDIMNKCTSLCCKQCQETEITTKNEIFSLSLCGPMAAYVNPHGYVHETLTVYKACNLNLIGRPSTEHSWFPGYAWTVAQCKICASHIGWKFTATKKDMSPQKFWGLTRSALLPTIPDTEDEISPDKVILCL

[2] = target: T1, Protein cereblon/Androgen receptor; experiment: PROTAC activity at CRBN/AR in human dermal papilla cell assessed as induction of AR degradation by measuring maximal efficacy after 24 hrs by Western blot analysis relative to control; format: cell-based
Target sequence in this assay (P10275 whole entry, looked up): as the sequence (P10275 whole entry) above
Target sequence in this assay (Q96SW2 whole entry, looked up): as the sequence (Q96SW2 whole entry) above

[3] = target: T1, Protein cereblon/Androgen receptor; experiment: PROTAC activity at CRBN/AR in human dermal papilla cell assessed as induction of AR degradation at 500 nM by Western blot analysis; format: cell-based; details: time 2-24 hrs
Target sequence in this assay (P10275 whole entry, looked up): as the sequence (P10275 whole entry) above
Target sequence in this assay (Q96SW2 whole entry, looked up): as the sequence (Q96SW2 whole entry) above

[4] = target: T1, Protein cereblon/Androgen receptor; experiment: PROTAC activity at CRBN/AR in human dermal papilla cells assessed as induction of AR degradation at 500 nM in presence of MG132 by Western blot analysis; format: cell-based; details: Human dermal papilla cell
Target sequence in this assay (P10275 whole entry, looked up): as the sequence (P10275 whole entry) above
Target sequence in this assay (Q96SW2 whole entry, looked up): as the sequence (Q96SW2 whole entry) above

[5] = target: T1, Protein cereblon/Androgen receptor; experiment: PROTAC activity at CRBN/AR in human dermal papilla cells assessed as inhibition of TGF-beta1 release by measuring TGF-beta1 concentration at 500 nM preincubated with testosterone for 24 hrs followed by compound addition and measured after 48 hrs by ELISA; format: cell-based; details: Human dermal papilla cell
Target sequence in this assay (P10275 whole entry, looked up): as the sequence (P10275 whole entry) above
Target sequence in this assay (Q96SW2 whole entry, looked up): as the sequence (Q96SW2 whole entry) above

[6] = target: T1, Protein cereblon/Androgen receptor; experiment: PROTAC activity at CRBN/AR in human dermal papilla cells assessed as inhibition of TGF-beta1 release by measuring TGF-beta1 concentration at 1 uM preincubated with testosterone for 24 hrs followed by compound addition and measured after 48 hrs by ELISA; format: cell-based; details: Human dermal papilla cell
Target sequence in this assay (P10275 whole entry, looked up): as the sequence (P10275 whole entry) above
Target sequence in this assay (Q96SW2 whole entry, looked up): as the sequence (Q96SW2 whole entry) above

[7] = target: T1, Protein cereblon/Androgen receptor; experiment: PROTAC activity at CRBN/AR in human dermal papilla cells assessed as inhibition of TGF-beta1 release by measuring fold change in TGF-beta1 concentration at 1 uM preincubated with testosterone for 24 hrs followed by compound addition and measured after 48 hrs by ELISA relative to enzalutamide; format: cell-based; details: Human dermal papilla cell
Target sequence in this assay (P10275 whole entry, looked up): as the sequence (P10275 whole entry) above
Target sequence in this assay (Q96SW2 whole entry, looked up): as the sequence (Q96SW2 whole entry) above

[8] = target: T1, Protein cereblon/Androgen receptor; experiment: PROTAC activity at CRBN/AR in human dermal papilla cells assessed as inhibition of TGF-beta1 release by measuring fold change in TGF-beta1 concentration at 1 uM preincubated with testosterone for 24 hrs followed by compound addition and measured after 48 hrs by ELISA relative to minoxidil; format: cell-based; details: Human dermal papilla cell
[9] = Ratio of drug concentration in male ICR mouse skin to heart at 4 mg/ml, TOP measured after 0.25 hrs by LC-MS/MS analysis; format: ADME, tissue-based; details: in vivo, topical_or_ocular
[10] = Ratio of drug concentration in male ICR mouse skin to heart at 4 mg/ml, TOP measured after 0.5 hrs by LC-MS/MS analysis; format: ADME, tissue-based; details: in vivo, topical_or_ocular
[11] = Cmax in male ICR mouse plasma at 4 mg/ml, TOP measured after 12 hrs by LC-MS/MS analysis; format: ADME, cell-free; details: topical or ocular
[12] = AUC (0 to t) in male ICR mouse plasma at 4 mg/ml, TOP measured after 12 hrs by LC-MS/MS analysis; format: ADME, cell-free; details: topical or ocular
[13] = Drug uptake in male ICR mouse lung at 4 mg/ml, TOP measured after 12 hrs by LC-MS/MS analysis; format: ADME, tissue-based; details: in vivo, topical_or_ocular
[14] = Ratio of drug concentration in male ICR mouse skin to plasma at 4 mg/ml, TOP measured after 0.25 hrs by LC-MS/MS analysis; format: ADME, cell-free; details: topical or ocular
[15] = Ratio of drug concentration in male ICR mouse skin to plasma at 4 mg/ml, TOP measured after 1 hrs by LC-MS/MS analysis; format: ADME, cell-free; details: topical or ocular
[16] = Ratio of drug concentration in male ICR mouse skin to plasma at 4 mg/ml, TOP measured after 4 hrs by LC-MS/MS analysis; format: ADME, cell-free; details: other tissue, topical_or_ocular
[17] = Ratio of drug concentration in male ICR mouse skin to heart at 4 mg/ml, TOP measured after 1 hrs by LC-MS/MS analysis; format: ADME, tissue-based; details: in vivo, topical_or_ocular
[18] = Ratio of drug concentration in male ICR mouse skin to heart at 4 mg/ml, TOP measured after 2 hrs by LC-MS/MS analysis; format: ADME, tissue-based; details: in vivo, topical_or_ocular
[19] = Ratio of drug concentration in male ICR mouse skin to heart at 4 mg/ml, TOP measured after 4 hrs by LC-MS/MS analysis; format: ADME, tissue-based; details: in vivo, topical_or_ocular
[20] = Ratio of drug concentration in male ICR mouse skin to liver at 4 mg/ml, TOP measured after 0.25 hrs by LC-MS/MS analysis; format: ADME, tissue-based; details: in vivo, topical_or_ocular
[21] = Ratio of drug concentration in male ICR mouse skin to liver at 4 mg/ml, TOP measured after 12 hrs by LC-MS/MS analysis; format: ADME, tissue-based; details: in vivo, topical_or_ocular
[22] = Ratio of drug concentration in male ICR mouse skin to spleen at 4 mg/ml, TOP measured after 0.25 hrs by LC-MS/MS analysis; format: ADME, tissue-based; details: in vivo, topical_or_ocular
[23] = Ratio of drug concentration in male ICR mouse skin to spleen at 4 mg/ml, TOP measured after 0.5 hrs by LC-MS/MS analysis; format: ADME, tissue-based; details: in vivo, topical_or_ocular
[24] = Ratio of drug concentration in male ICR mouse skin to spleen at 4 mg/ml, TOP measured after 4 hrs by LC-MS/MS analysis; format: ADME, tissue-based; details: in vivo, topical_or_ocular
[25] = Ratio of drug concentration in male ICR mouse skin to spleen at 4 mg/ml, TOP measured after 8 hrs by LC-MS/MS analysis; format: ADME, tissue-based; details: in vivo, topical_or_ocular
[26] = Ratio of drug concentration in male ICR mouse skin to spleen at 4 mg/ml, TOP measured after 12 hrs by LC-MS/MS analysis; format: ADME, tissue-based; details: in vivo, topical_or_ocular
[27] = Ratio of drug concentration in male ICR mouse skin to lungs at 4 mg/ml, TOP measured after 0.25 hrs by LC-MS/MS analysis; format: ADME, tissue-based, Skin/Lung; details: in vivo, topical_or_ocular
[28] = Ratio of drug concentration in male ICR mouse skin to lungs at 4 mg/ml, TOP measured after 0.5 hrs by LC-MS/MS analysis; format: ADME, tissue-based, Skin/Lung; details: in vivo, topical_or_ocular
[29] = Ratio of drug concentration in male ICR mouse skin to lungs at 4 mg/ml, TOP measured after 2 hrs by LC-MS/MS analysis; format: ADME, tissue-based, Skin/Lung; details: in vivo, topical_or_ocular
[30] = Ratio of drug concentration in male ICR mouse skin to kidney at 4 mg/ml, TOP measured after 4 hrs by LC-MS/MS analysis; format: ADME, tissue-based; details: in vivo, topical_or_ocular
[31] = Ratio of drug concentration in male ICR mouse skin to kidney at 4 mg/ml, TOP measured after 8 hrs by LC-MS/MS analysis; format: ADME, tissue-based; details: in vivo, topical_or_ocular
Mus musculus [32] = experiment: Hair regeneration efficacy in testosterone induced male C57BL/6 mouse androgenetic alopecia model assessed as entry of hair follicles to anagen phase by measuring high density of enlarged hair bulbs in subcutaneous tissue at 0.1 %, TOP administered once daily for 14 days with co-administration of 0.2% testosterone for 28 days by H and E staining based analysis; format: functional, organism-based; details: time 14.0 day
Mus musculus [33] = experiment: Hair regeneration efficacy in testosterone induced male C57BL/6 mouse androgenetic alopecia model assessed as increase in hair cycle score at 0.1 %, TOP administered once daily for 14 days with co-administration of 0.2% testosterone for 28 days; format: functional, organism-based; details: time 14.0 day
[34] = target: Protein cereblon/Androgen receptor (Mus musculus) (UniProt P19091+Q8C7D2); experiment: (§1) In vivo PROTAC activity at CRBN/AR in testosterone induced male C57BL/6 mouse androgenetic alopecia model assessed as decrease in TGF-beta expression level in skin at 0.4 % TOP administered once daily for 14 days with co-administration of 0.2% testosterone for 28 days by DAPI staining based immunofluorescence analysis; format: functional, organism-based; details: time 14.0 day
Mus musculus [35] = experiment: as §1, with “Hair regeneration efficacy” for “In vivo PROTAC activity at CRBN/AR”, “increase” for “decrease”, “Ki67” for “TGF-beta”, “expression” for “expression level”; format: functional, organism-based; details: time 14.0 day

Protein cereblon/Androgen receptor (Mus musculus), sequence (P19091 whole entry, looked up): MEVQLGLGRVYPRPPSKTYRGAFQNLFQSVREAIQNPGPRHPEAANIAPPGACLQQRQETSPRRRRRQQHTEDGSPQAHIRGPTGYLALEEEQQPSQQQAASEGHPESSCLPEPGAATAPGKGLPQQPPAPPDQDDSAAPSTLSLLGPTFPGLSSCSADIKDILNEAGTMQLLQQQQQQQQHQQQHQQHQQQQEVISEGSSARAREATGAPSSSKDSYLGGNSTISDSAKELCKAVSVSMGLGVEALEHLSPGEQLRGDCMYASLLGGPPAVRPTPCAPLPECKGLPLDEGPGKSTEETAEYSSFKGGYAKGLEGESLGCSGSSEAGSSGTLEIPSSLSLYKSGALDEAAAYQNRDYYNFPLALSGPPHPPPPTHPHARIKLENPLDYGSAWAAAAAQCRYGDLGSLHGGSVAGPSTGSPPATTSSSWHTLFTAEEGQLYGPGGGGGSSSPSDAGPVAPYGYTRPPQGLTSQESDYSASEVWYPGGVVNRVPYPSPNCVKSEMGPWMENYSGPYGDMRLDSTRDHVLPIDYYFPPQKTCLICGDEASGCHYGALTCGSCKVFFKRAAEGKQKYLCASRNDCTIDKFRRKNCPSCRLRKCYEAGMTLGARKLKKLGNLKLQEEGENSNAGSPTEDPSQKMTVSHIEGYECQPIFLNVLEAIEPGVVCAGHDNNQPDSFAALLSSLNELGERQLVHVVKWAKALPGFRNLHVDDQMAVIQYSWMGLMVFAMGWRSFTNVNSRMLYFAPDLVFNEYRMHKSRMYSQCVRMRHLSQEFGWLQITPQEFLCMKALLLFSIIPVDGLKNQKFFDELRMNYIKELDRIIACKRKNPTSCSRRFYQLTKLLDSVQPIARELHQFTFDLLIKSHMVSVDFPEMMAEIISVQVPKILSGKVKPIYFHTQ
Protein cereblon/Androgen receptor (Mus musculus), sequence (Q8C7D2 whole entry, looked up): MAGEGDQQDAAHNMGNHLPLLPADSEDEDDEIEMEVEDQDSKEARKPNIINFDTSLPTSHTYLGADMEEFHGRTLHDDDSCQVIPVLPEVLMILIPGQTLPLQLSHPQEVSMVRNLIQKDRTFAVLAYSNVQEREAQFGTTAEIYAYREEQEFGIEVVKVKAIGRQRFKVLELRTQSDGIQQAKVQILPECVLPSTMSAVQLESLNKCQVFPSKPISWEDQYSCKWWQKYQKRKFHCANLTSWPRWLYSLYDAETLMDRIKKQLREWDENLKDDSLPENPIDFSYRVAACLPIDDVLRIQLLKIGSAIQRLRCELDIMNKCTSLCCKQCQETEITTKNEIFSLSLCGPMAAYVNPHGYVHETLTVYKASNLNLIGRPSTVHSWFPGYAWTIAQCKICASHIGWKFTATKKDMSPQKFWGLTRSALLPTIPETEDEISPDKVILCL

With `N#Cc1ccc(O[C@H]2CC[C@H](NC(=O)c3ccc(C4CCN(CC5CCCN(c6ccc(C(=O)NC7CCC(=O)NC7=O)cc6)C5)CC4)cc3)CC2)cc1Cl` (stereo not given in full) the DC50 [1] was 0.262 µM, the Emax [2] was 63% and the Activity [3] was “Time-dependent-effect”. For the same molecule, the Activity [4] was “Not active; Compound Activity Dependent On Ubiquitin-Proteosome System”, the Activity [5] was 869 pg/mL and the Activity [6] was 736 pg/mL. For the same molecule, the fold change (FC) [7] was 0.62, the fold change (FC) [8] was 0.77 and the Ratio [9] was 333.81. It also gave a Ratio [10] of 119.61, a Cmax [11] of 0.708 µg/mL and an AUC(0-t) at 12 h [12] of 0.992 µg·h/mL. For the same molecule, the Drug uptake [13] was “Active”, the Kp at 0.25 h [14] was 117 and the Kp at 1 h [15] was 71.5. For the same molecule, the Ratio [16] was 1873.84, the Ratio [17] was 996.6 and the Ratio [18] was 638.59. It also gave a Ratio [19] of 403.09, a Ratio [20] of 344.99 and a Ratio [21] of 173.24. The Ratio [22] was 510.81, the Ratio [23] was 67.05 and the Ratio [24] was 635.83. It also gave a Ratio [25] of 347.97, a Ratio [26] of 249.88 and a Ratio [27] of 269.54. For the same molecule, the Ratio [28] was 54.37, the Ratio [29] was 198.98 and the Ratio [30] was 285.69. The Ratio [31] was 191.71, the Activity (Mus musculus [32]) was “Active; Less Effective Compared To High Dose Compound Group And Minoxidil Group” and the Activity (Mus musculus [33]) was “Active; Less Effective Compared To High Dose Compound Group And Minoxidil Group”. For the same molecule, the Activity [34] was “Active” and the Activity (Mus musculus [35]) was “Active”.

Reference: ChEMBL document CHEMBL6078684, “Discovery of a Novel Non-invasive AR PROTAC Degrader for the Topical Treatment of Androgenetic Alopecia” (J Med Chem, 2024)
